Broadly, the IC50 is the midpoint of a concentration-inhibition curve.

Consider five molecules from patent US9701711B2, “Modulators of protease activated receptors” (THE UNIVERSITY OF QUEENSLAND, priority 2010, dated 2017).

Series [1] has as its target T1, PAR2 (Homo sapiens, UniProt P55085).
T1 sequence (P55085 26-397): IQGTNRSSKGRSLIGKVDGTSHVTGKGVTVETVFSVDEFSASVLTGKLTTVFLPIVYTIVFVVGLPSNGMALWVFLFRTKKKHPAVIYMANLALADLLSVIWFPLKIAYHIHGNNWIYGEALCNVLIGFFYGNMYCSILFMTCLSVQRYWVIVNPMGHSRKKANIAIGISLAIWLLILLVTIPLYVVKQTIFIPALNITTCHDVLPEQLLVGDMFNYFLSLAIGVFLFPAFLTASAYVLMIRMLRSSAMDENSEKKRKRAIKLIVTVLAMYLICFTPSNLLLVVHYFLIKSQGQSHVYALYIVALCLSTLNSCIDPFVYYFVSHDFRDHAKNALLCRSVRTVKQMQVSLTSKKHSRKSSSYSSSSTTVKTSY
To be noted: cited from earlier work.

In series [2] the target is T1, PAR2. Description: PAR2 agonist inhibition (antagonism) by intracellular Ca2+ release in HT29 cells. Details: Agonists of Ca^2+ release in HT29 cells; endogenous in cells; host or cells: HT29 (human cell line, cultured per ATCC information). It counts as cell-based. To be noted: HT29 cells; 30 min pre-incubation, then PAR2 agonist (1 μM 2f-LIGRLO-NH2); read-out: IC50, inhibition of Ca2+ release in HT29 cells. The source says: The ability of the compounds of the present invention to activate PAR2 may be assessed via calcium mobilisation assays. It is appreciated that compounds that activate the release of intracellular calcium from one type of cell are agonists or partial agonists, while those that inhibit such release may be antagonists. […] The general assay protocols may vary slightly depending on the chosen cell line. In general, during cell culture passage, cell dissociation solution (CDS, Sigma Aldrich) is used to replace trypsin to dissociate cells from surface. Lipopolysaccharide (LPS) and trypsin are purchased from Sigma Aldrich. […] ELISA sets are purchased from BD Pharmingen (San Jose, Calif.) and cytokine array kits are purchased from RayBiotecho (Norcross, Ga.).
Cells are seeded overnight in 96-well black walled, clear bottomed, plate at approximately 2×10^4 to 4×10^5 cells per well. […] The cells are then washed twice with HBSS and transferred to a Polarstar spectrotluorimeter (BMG, Durham N.C.).
The cells are prepared as outlined above then treated with the “putative” antagonist 30 min prior to the addition of either trypsin or a synthetic agonist at a concentration equal to the agonists ED80.
The cells were then treated with 1 μM of the PAR2 agonist 2f-LIGRLO-NH2 (FIG. 2A. n=5) or 100 nM Trypsin (FIG. 2B, n=1). Each data point represents mean±SEM. Net changes in fluorescence were calculated as a percentage relative to the maximum response given 1 μM 2f-LIGRLO-NH2 or 100 nM Trypsin. Changes in fluorescence (% response) were plotted against logarithmic compound concentrations. The half maximal inhibitory concentration (IC50) values were derived from the dose response curve using a nonlinear regression curve in Graphpad Prism v5.

For series [3], the target named is T2, PAR2 (Rattus norvegicus, UniProt Q63645).
T2 construct: from tissue; host or cells: paw of living male Wistar rats
T2 sequence (Q63645 26-397): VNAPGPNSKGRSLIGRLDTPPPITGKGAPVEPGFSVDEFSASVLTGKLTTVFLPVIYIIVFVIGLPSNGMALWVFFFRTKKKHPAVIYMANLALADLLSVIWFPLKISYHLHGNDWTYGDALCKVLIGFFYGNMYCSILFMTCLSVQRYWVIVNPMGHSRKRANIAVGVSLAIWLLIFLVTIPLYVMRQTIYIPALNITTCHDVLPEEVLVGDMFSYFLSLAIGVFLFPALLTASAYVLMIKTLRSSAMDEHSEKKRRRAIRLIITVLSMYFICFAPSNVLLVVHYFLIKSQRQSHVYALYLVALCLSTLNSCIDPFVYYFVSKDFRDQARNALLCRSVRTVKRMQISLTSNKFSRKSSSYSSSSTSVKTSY
Description: Acute inflammatory model: PAR2-induced paw oedema. It counts as in vivo. The conditions noted are these: Wistar rat, 10 mg/kg p.o. in olive oil, n=3; agonist 350 μg/paw 2 h after oral dose. The method, then: FIG. 9. Graphical representation of the ability of PAR2 antagonists 18, 30, 42, 44 to attenuate experimental paw oedema.
The methods used are based on those previously described (Kelso. E. B., et al. Arthritis Rheum 2007, 56, 765-71; Kelso. E. B., et al. J Pharmacol Exp Ther 2006, 316, 1017-24; and Vergnolle, N. J Immunol 1999, 163, 5064-9). Male Wistar rats (n=3 per group) are used. Briefly, rats are given either 5 or 10 mg/kg of a compound of the present invention (p.o. via gavage in olive oil, approx. 500 μL, weight adjusted). Control animals receive only olive oil (500 μL p.o.). Two hours later, the PAR2 agonist 2-furoyl-LIGRLO (350 μg/paw in saline, 100 μL) is injected into the plantar surface (i.pl.) of the right paw pad using a 30 G needle. The left paw acts as a control, receiving saline only. Paw thickness and width are measured after 30 minutes and hourly using digital calipers (World Precision Instruments, USA) and swelling is calculated in area (mm^2; thickness multiplied by width) and expressed as a percentage change from baseline of each individual paw. Results for exemplary PAR2 ligands 18, 30, 42 and 44 are illustrated in FIG. 9.

Series [4] is described as follows: Stability in rat liver homogenate. It counts as in vitro ADME. The conditions noted are these: 10 μM, 37° C., up to 180 minutes. The method, then: Blood and liver is collected form non-drug dosed male and female Wistar rats (aged 8-9 weeks, 200-250 g and 250-300 g respectively). Bloods are centrifuged at 8 K rpm for 5 min. Plasma are pooled and stored at −80° C. for later use. The rat livers are homogenized, diluted with three volumes of PBS, cloth filtered. The filtrate is used directly for stability studies.
Lach compound is dissolved in DMSO to make […] stock solution. 10 μL of the stock is diluted with either rat plasma or liver homogenate (490 μL) to make up a starting concentration of 10 μM (triplicates). The mixtures are vortexed and incubated at 37° C. At each time point of 0, 30, 60 and 180 minutes. 100 μL of the mixture is taken and diluted with 300 μL of acetonitrile. The mixture is vortexed and centrifuged, 350 μL of the liquid is transferred into a microfuge tube and concentrated using a rotational vacuum concentrator (Christ Beta-RVC, supplied by Quantum Scientific). 100 μL of acetonitrile water (9:1, v/v) is added to the residue, vortexed and immediately analysed by LCMS/MS. Data from these experiments are expressed as percent of peak area recorded from the LCMS/MS trace at time zero (t0).

As to 2-furoyl-LIGRL-NH2, in series [1], the “Selectivity for PAR2 over PAR1” value is given as “selective for PAR2 over PAR1”. Further, the “Agonist potency relative to SLIGRL-NH2” value in series [1] (higher agonist potency than SLIGRL-NH2) was around 20 fold.
For the molecule `CC[C@H](C)[C@H](NC(=O)[C@H](CC1CCCCC1)NC(=O)c1ccno1)C(=O)NCc1ccccc1OC` [Compound 18, 5-isoxazoyl-Cha-Ile-aminomethyl-(2-methoxy)phenyl], the IC50 in series [2] came out at 500 ± 100 nM. Also, in series [3], the “Paw swelling induced by 2-f-LIGRLO-NH2” value is “reduced the paw swelling”. Further, the “Stability in rat liver homogenate” value in series [4] is “decomposed to varied degree”.
For `CC[C@H](C)[C@H](NC(=O)[C@H](CC1CCCCC1)NC(=O)c1ccno1)C(=O)N1CCC(c2ccccc2)CC1` [Compound 30, 5-isoxazoyl-Cha-Ile-(4-phenyl)piperidine], the “Paw swelling induced by 2-f-LIGRLO-NH2” value in series [3] is “reduced the paw swelling”. The “Stability in rat liver homogenate” value in series [4] was “decomposed to varied degree”.
Turning to `CC[C@H](C)[C@H](NC(=O)[C@H](CC1CCCCC1)NC(=O)c1cc(N)no1)C(=O)N1CCC2(C=Cc3ccccc32)CC1` [Compound 42, 5-(3-amino-isoxazoyl)-Cha-Ile-spiro[indene-1,4′-piperidine]], the “Paw swelling induced by 2-f-LIGRLO-NH2” value in series [3] was “reduced the paw swelling”. Moreover, the “Stability in rat liver homogenate” value in series [4] is given as “decomposed to varied degree”.
Consider `CO[C@H](C)[C@H](NC(=O)[C@H](CC1CCCCC1)NC(=O)c1ccno1)C(=O)N1CCC2(C=Cc3ccccc32)CC1` [Compound 44, 5-isoxazoyl-Cha-Thr(Me)-spiro[indene-1,4′-piperidine]], for which, in series [2], the IC50 came out at 1000 nM. Moreover, the “Paw swelling induced by 2-f-LIGRLO-NH2” value in series [3] is reported as “reduced the paw swelling”. Also, the “Stability in rat liver homogenate” value in series [4] is “decomposed to varied degree”.
